Our source for the IC50 values is patent US7973061B2, “Anaplastic lymphoma kinase modulators and methods of use” (Exelixis, Inc., priority 2004, dated 2011).

Molecules are shown by their SMILES.

In the assay the target is T1, ALK (baculovirus expressed human ALK kinase domain F1098-K1410) (Homo sapiens, UniProt Q9UM73).
T1 construct: human ALK kinase domain F1098-K1410; made in house
T1 sequence (Q9UM73 1098-1410): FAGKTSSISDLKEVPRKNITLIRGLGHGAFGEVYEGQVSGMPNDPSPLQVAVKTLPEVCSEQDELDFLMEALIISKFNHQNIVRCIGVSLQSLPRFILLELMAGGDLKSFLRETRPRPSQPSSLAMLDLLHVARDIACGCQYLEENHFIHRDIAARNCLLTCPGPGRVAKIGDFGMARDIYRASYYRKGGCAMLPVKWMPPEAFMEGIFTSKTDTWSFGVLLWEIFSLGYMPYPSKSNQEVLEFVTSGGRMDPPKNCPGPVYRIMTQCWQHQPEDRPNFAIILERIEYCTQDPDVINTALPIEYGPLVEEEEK
The experiment in a line: biochemical. To be noted: 1 μM ATP, 4 μM poly-AEKY, 12 nM ALK, 2 hours at ambient temperature; read-out: ALK IC50. The protocol: Kinase activity and compound inhibition are investigated using one or more of the three assay formats described below. The ATP concentrations for each assay are selected to be close to the Michaelis-Menten constant (KM) for each individual kinase. Dose-response experiments are performed at 10 different inhibitor concentrations in a 384-well plate format. […] Y=Min+(Max−Min)/(1+(X/IC50)^H) Equation (2) Luciferase-Coupled Chemiluminescent Kinase Assay
ALK biochemical activity was assessed using a Luciferase-Coupled Chemiluminescent Kinase assay (LCCA) format in which kinase activity was measured as the percent ATP remaining following the kinase reaction. ATP remaining after the kinase reaction was detected by luciferase-luciferin-coupled chemiluminescence. […] The mixture was incubated at ambient temperature for 2 hours after which 20 μL luciferase-luciferin mix was added and the chemiluminescent signal read using a Wallac Victor^2 reader. […] Consumption of ATP by ALK can be quantified and utilized as a measure of inhibition of ALK activity by compounds described herein. By employing serial dilutions of compounds to be tested, the ability of test compounds to inhibit ALK activity can be determined.
Turning to `CCCOCCCNC(=O)c1csc(CNC(=O)COc2ccc(OC(F)(F)F)cc2)n1` [Entry 74, N-[3-(propyloxy)propyl]-2-({[({4-[(trifluoromethyl)oxy]phenyl}oxy)acetyl]amino}methyl)-1,3-thiazole-4-carboxamide], the IC50 lay in the range of 50 to 500 nM.

For `O=C(COc1ccc(OC(F)(F)F)cc1)NCc1nc(C(=O)NCCc2ccc(Cl)cc2)co1` [Entry 246, N-[2-(4-chlorophenyl)ethyl]-2-({[({4-[(trifluoromethyl)oxy]phenyl}oxy)acetyl]amino}methyl)-1,3-oxazole-4-carboxamide], the IC50 fell in the range of 500 to 2000 nM.

In the case of `COc1cccc(CNC(=O)c2csc(CNC(=O)COc3ccc(OC(F)(F)F)cc3)n2)c1` [Entry 154, N-{[3-(methyloxy)phenyl]methyl}-2-({[({4-[(trifluoromethyl)oxy]phenyl}oxy)acetyl]amino}methyl)-1,3-thiazole-4-carboxamide], the IC50 lay within 50 to 500 nM.

Take `COCC(C)NC(=O)c1csc(CNC(=O)COc2ccc(OC(F)(F)F)cc2)n1` (centres unmarked) [Entry 268, N-[1-methyl-2-(methyloxy)ethyl]-2-({[({4-[(trifluoromethyl)oxy]phenyl}oxy)acetyl]amino}methyl)-1,3-thiazole-4-carboxamide]: the IC50 was 500 to 2000 nM.

In the case of `O=C(COc1ccc(OC(F)(F)F)cc1)NCc1nc(C(=O)NC23C[C@H]4C[C@@H](C2)C[C@@H](C3)C4)cs1` [Entry 23, N-tricyclo[3.3.1.1~3,7~]dec-1-yl-2-({[({4-[(trifluoromethyl)oxy]phenyl}oxy)acetyl]amino}methyl)-1,3-thiazole-4-carboxamide], the IC50 is below 50 nM.

Take `O=C(COc1ccc(OC(F)(F)F)cc1)NCc1nc(C(=O)NCCc2ccccc2)cs1` [Entry 145, N-(2-phenylethyl)-2-({[({4-[(trifluoromethyl)oxy]phenyl}oxy)acetyl]amino}methyl)-1,3-thiazole-4-carboxamide]: the IC50 was in the range of 50 to 500 nM.

On to `NS(=O)(=O)c1ccc(CCNC(=O)c2csc(CNC(=O)COc3ccc(OC(F)(F)F)cc3)n2)cc1` [Entry 13, N-{2-[4-(aminosulfonyl)phenyl]ethyl}-2-({[({4-[(trifluoromethyl)oxy]phenyl}oxy)acetyl]amino}methyl)-1,3-thiazole-4-carboxamide], for which the IC50 was below 50 nM.

Consider `O=C(COc1ccc(OC(F)(F)F)cc1)NCc1nc(C(=O)NCCc2cccc(Cl)c2)c[nH]1` [Entry 306, N-[2-(3-chlorophenyl)ethyl]-2-({[({4-[(trifluoromethyl)oxy]phenyl}oxy)acetyl]amino}methyl)-1H-imidazole-4-carboxamide], for which the IC50 was above 2000 nM.

For `O=C(COc1ccc(Br)cc1)NCc1nc(C(=O)NCCc2cccc(Cl)c2)cs1` [Entry 109, 2-[({[(4-bromophenyl)oxy]acetyl}amino)methyl]-N-[2-(3-chlorophenyl)ethyl]-1,3-thiazole-4-carboxamide], the IC50 lay in the range of 50 to 500 nM.

On to `CC(NC(=O)COc1ccc(OC(F)(F)F)cc1)c1nc(C(=O)NCCc2cccc(Cl)c2)cs1` (centres unmarked) [Entry 1, N-[2-(3-chlorophenyl)ethyl]-2-(1-{[({4-[(trifluoromethyl)oxy]phenyl}oxy)acetyl]amino}ethyl)-1,3-thiazole-4-carboxamide], for which the IC50 was below 50 nM.

Regarding `CCC1COC(C)(CCC(C)C)N1C(=O)c1csc(CNC(=O)COc2ccc(OC(F)(F)F)cc2)n1` (centres unmarked) [Entry 310, N-[(4-{[4-ethyl-2-methyl-2-(3-methylbutyl)-1,3-oxazolidin-3-yl]carbonyl}-1,3-thiazol-2-yl)methyl]-2-({4-[(trifluoromethyl)oxy]phenyl}oxy)acetamide], the IC50 is above 2000 nM.

As to `O=C(COc1ccc(OC(F)(F)F)cc1)NCc1nc(C(=O)NCc2ccncc2)cs1` [Entry 285, N-(pyridin-4-ylmethyl)-2-({[({4-[(trifluoromethyl)oxy]phenyl}oxy)acetyl]amino}methyl)-1,3-thiazole-4-carboxamide], the IC50 lay within 500 to 2000 nM.

On to `C[C@H](NC(=O)c1csc(CNC(=O)COc2ccc(OC(F)(F)F)cc2)n1)C(C)(C)C` [Entry 102, 2-({[({4-[(trifluoromethyl)oxy]phenyl}oxy)acetyl]amino}methyl)-N-[(1S)-1,2,2-trimethylpropyl]-1,3-thiazole-4-carboxamide], for which the concentration for half-maximal inhibition (IC50) was in the range of 50 to 500 nM.

In the case of `O=C(COc1ccc(OC(F)(F)F)cc1)NCc1nc(C(=O)O)co1` [Entry 308, 2-({[({4-[(trifluoromethyl)oxy]phenyl}oxy)acetyl]amino}methyl)-1,3-oxazole-4-carboxylic acid], the IC50 is above 2000 nM.

In the case of `O=C(COc1ccc(OC(F)(F)F)cc1)NCc1nc(C(=O)NCCc2ccc(F)cc2)co1` [Entry 201, N-[2-(4-fluorophenyl)ethyl]-2-({[({4-[(trifluoromethyl)oxy]phenyl}oxy)acetyl]amino}methyl)-1,3-oxazole-4-carboxamide], the IC50 lay within 50 to 500 nM.

In the case of `CCCCCCNC(=O)c1csc(CNC(=O)COc2ccc(OC(F)(F)F)cc2)n1` [Entry 113, N-hexyl-2-({[({4-[(trifluoromethyl)oxy]phenyl}oxy)acetyl]amino}methyl)-1,3-thiazole-4-carboxamide], the IC50 was 50 to 500 nM.

Consider `CCCCCCN(C)C(=O)c1csc(CNC(=O)COc2ccc(OC(F)(F)F)cc2)n1` [Entry 193, N-hexyl-N-methyl-2-({[({4-[(trifluoromethyl)oxy]phenyl}oxy)acetyl]amino}methyl)-1,3-thiazole-4-carboxamide], for which the IC50 was in the range of 50 to 500 nM.

`O=C(COc1ccc(OC(F)(F)F)cc1)NCc1nc(C(=O)NCCC2=CCCCC2)cs1` [Entry 35, N-(2-cyclohex-1-en-1-ylethyl)-2-({[({4-[(trifluoromethyl)oxy]phenyl}oxy)acetyl]amino}methyl)-1,3-thiazole-4-carboxamide]: the IC50 is 50 to 500 nM.

As to `O=C(NCc1nc(C(=O)NCCc2cccc(Cl)c2)cs1)OCc1ccc(OC(F)(F)F)cc1` [Entry 298, {4-[(trifluoromethyl)oxy]phenyl}methyl {[4-({[2-(3-chlorophenyl)ethyl]amino}carbonyl)-1,3-thiazol-2-yl]methyl}carbamate], the IC50 lay within 500 to 2000 nM.

Regarding `O=C(COc1ccc(OC(F)(F)F)cc1)NCc1nc(C(=O)N2CC[C@H]3CCCC[C@@H]3C2)cs1` [Entry 266, N-({4-[(4aR,8aS)-octahydroisoquinolin-2(1H)-ylcarbonyl]-1,3-thiazol-2-yl}methyl)-2-({4-[(trifluoromethyl)oxy]phenyl}oxy)acetamide], the half-inhibitory concentration (IC50) lay in the range of 500 to 2000 nM.

On to `O=C(COc1ccc(OC(F)(F)F)cc1)NCc1nc(C(=O)NCc2ccc(Cl)c(Cl)c2)cs1` [Entry 75, N-[(3,4-dichlorophenyl)methyl]-2-({[({4-[(trifluoromethyl)oxy]phenyl}oxy)acetyl]amino}methyl)-1,3-thiazole-4-carboxamide], for which the IC50 lay within 50 to 500 nM.

In the case of `COc1ccccc1CNC(=O)c1csc(CNC(=O)COc2ccc(OC(F)(F)F)cc2)n1` [Entry 17, N-{[2-(methyloxy)phenyl]methyl}-2-({[({4-[(trifluoromethyl)oxy]phenyl}oxy)acetyl]amino}methyl)-1,3-thiazole-4-carboxamide], the IC50 is below 50 nM.

In the case of `CC(NC(=O)c1csc(CNC(=O)COc2ccc(OC(F)(F)F)cc2)n1)c1ccc(F)cc1` (centres unmarked) [Entry 86, N-[1-(4-fluorophenyl)ethyl]-2-({[({4-[(trifluoromethyl)oxy]phenyl}oxy)acetyl]amino}methyl)-1,3-thiazole-4-carboxamide], the IC50 lay within 50 to 500 nM.

Turning to `CCc1ccc(NC(=O)NCc2nc(C(=O)NCc3ccccc3OC)cs2)cc1` [Entry 110, 2-[({[(4-ethylphenyl)amino]carbonyl}amino)methyl]-N-{[2-(methyloxy)phenyl]methyl}-1,3-thiazole-4-carboxamide], the 50% inhibitory concentration (IC50) was 50 to 500 nM.

With `CC(=O)NCCNC(=O)c1csc(CNC(=O)COc2ccc(OC(F)(F)F)cc2)n1` [Entry 281, N-[2-(acetylamino)ethyl]-2-({[({4-[(trifluoromethyl)oxy]phenyl}oxy)acetyl]amino}methyl)-1,3-thiazole-4-carboxamide], the IC50 fell in the range of 500 to 2000 nM.

Turning to `CC(NC(=O)c1csc(CNC(=O)COc2ccc(OC(F)(F)F)cc2)n1)c1ccc(Br)cc1` (centres unmarked) [Entry 204, N-[1-(4-bromophenyl)ethyl]-2-({[({4-[(trifluoromethyl)oxy]phenyl}oxy)acetyl]amino}methyl)-1,3-thiazole-4-carboxamide], the IC50 was in the range of 50 to 500 nM.

With `O=C(COc1ccc(OC(F)(F)F)cc1)NCc1nc(C(=O)NCCN2CCOCC2)cs1` [Entry 205, N-(2-morpholin-4-ylethyl)-2-({[({4-[(trifluoromethyl)oxy]phenyl}oxy)acetyl]amino}methyl)-1,3-thiazole-4-carboxamide], the half-inhibitory concentration (IC50) lay within 50 to 500 nM.

With `COc1ccccc1CNC(=O)c1csc(CNC(=O)C/C=C/c2ccccc2)n1` [Entry 284, N-{[2-(methyloxy)phenyl]methyl}-2-({[(3E)-4-phenylbut-3-enoyl]amino}methyl)-1,3-thiazole-4-carboxamide], the half-inhibitory concentration (IC50) fell in the range of 500 to 2000 nM.

On to `O=C(NCCc1cccc(Cl)c1)c1csc(CNC(=O)C2(c3ccc(Cl)cc3)CC2)n1` [Entry 236, 2-[({[1-(4-chlorophenyl)cyclopropyl]carbonyl}amino)methyl]-N-[2-(3-chlorophenyl)ethyl]-1,3-thiazole-4-carboxamide], for which the IC50 fell in the range of 500 to 2000 nM.
